Measurements reported in PubChem BioAssay AID330 (DTP/NCI, 2004).
“And” between values parts separate entries of the source, which are not always exact repeats. Identical values can stand only once. Toxic doses and inconclusive results are not listed. Rule for the calls: active = survival T/C of 150% or more; inactive = T/C below 125% in these data.

Tested on: P388 leukemia ip, CD2F1 mice, survival T/C
Experiment: NCI In Vivo Anticancer Drug Screen. Data for tumor model P388 Leukemia (intraperitoneal) in CD2F1 (CDF1) mice
Details: endpoint: median survival time, higher = longer survival
Outline: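 Mice carrying the transplanted tumor received test compound or vehicle. Survival was recorded in each group, and the value is the treated-group measurement divided by that of the vehicle-treated control group.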

[1] = dose: 12.5 mg/kg/injection, schedule: Q01DX009 (ip), vehicle: saline with Tween-80
[2] = dose: 25.0 mg/kg/injection, schedule: Q01DX009 (ip), vehicle: saline with Tween-80
[3] = dose: 50.0 mg/kg/injection, schedule: Q04DX003 (ip), vehicle: saline with Tween-80
[4] = dose: 100.0 mg/kg/injection, schedule: Q04DX003 (ip), vehicle: saline with Tween-80
[5] = dose: 25.0 mg/kg/injection, schedule: Q04DX003 (ip), vehicle: saline with Tween-80
[6] = dose: 50.0 mg/kg/injection, schedule: Q01DX009 (ip), vehicle: saline with Tween-80
[7] = dose: 100.0 mg/kg/injection, schedule: Q01DX009 (ip), vehicle: saline with Tween-80
[8] = dose: 50.0 mg/kg/injection, schedule: Q01DX005 (ip), vehicle: Klucel (hydroxypropylcellulose) (HPC)
[9] = dose: 200.0 mg/kg/injection, schedule: Q01DX005 (ip), vehicle: Klucel (hydroxypropylcellulose) (HPC)
[10] = dose: 200.0 mg/kg/injection, schedule: Q01DX009 (ip), vehicle: saline with Tween-80
[11] = dose: 60.0 mg/kg/injection, schedule: Q01DX005 (ip), vehicle: Klucel (hydroxypropylcellulose) (HPC)
[12] = dose: 120.0 mg/kg/injection, schedule: Q01DX005 (ip), vehicle: Klucel (hydroxypropylcellulose) (HPC)
[13] = dose: 240.0 mg/kg/injection, schedule: Q01DX005 (ip), vehicle: Klucel (hydroxypropylcellulose) (HPC)
[14] = dose: 60.0 mg/kg/injection, schedule: Q01DX005 (ip), vehicle: saline with Tween-80
[15] = dose: 50.0 mg/kg/injection, schedule: Q01DX009 (ip), vehicle: Klucel (hydroxypropylcellulose) (HPC)
[16] = dose: 50.0 mg/kg/injection, schedule: Q01DX009 (ip), vehicle: saline
[17] = dose: 100.0 mg/kg/injection, schedule: Q01DX009 (ip), vehicle: saline
[18] = dose: 200.0 mg/kg/injection, schedule: Q01DX009 (ip), vehicle: saline

Measured: T/C

O=C(/C=C/c1ccccc1)c1ccc(O)cc1
inactive: dose: 6.25 mg/kg/injection, schedule: Q01DX009 (ip), vehicle: saline with Tween-80 103 % of control | [1] 109 % of control | [2] 110 % of control | [3] 98 % of control | [4] 98 % of control | dose: 400.0 mg/kg/injection, schedule: Q04DX003 (ip), vehicle: saline with Tween-80 114 % of control

COC1OC2COC(c3ccccc3)OC2C(O)C1N (stereo not given)
inactive: [2] 112 % of control | [5] 100 % of control | [6] 95 % of control | [3] 100 % of control | [7] 104 % of control | [4] 100 % of control

CCN(CC)CCC(O)(c1ccc2c(c1)OCO2)c1cc(OC)c(OC)c(OC)c1 (stereo not given)
inactive: [8] 103 % of control and 93 % of control and 94 % of control | [9] 101 % of control

O=C(CNC(c1ccccc1)(c1ccccc1)c1ccccc1)OC(c1ccccc1)c1ccccc1
inactive: [6] 104 % of control | [7] 118 % of control | [10] 90 % of control

O=C1NC(=O)C2CC3C(CC12)C1C(=O)NC(=O)C31 (stereo not given)
inactive: dose: 50.0 mg/kg/injection, schedule: Q01DX005 (ip), vehicle: saline with Tween-80 104 % of control | dose: 100.0 mg/kg/injection, schedule: Q01DX005 (ip), vehicle: saline with Tween-80 101 % of control

COC(=O)/C=C1/Nc2c(N)nc(N)nc2NC1=O
inactive: dose: 100.0 mg/kg/injection, schedule: Q04DX003 (ip), vehicle: saline 108 % of control | dose: 200.0 mg/kg/injection, schedule: Q04DX003 (ip), vehicle: saline 94 % of control | dose: 400.0 mg/kg/injection, schedule: Q04DX003 (ip), vehicle: saline 95 % of control

NC1=C(O)C(=O)C(c2cccnc2)O1 (stereo not given)
inactive: dose: 30.0 mg/kg/injection, schedule: Q01DX005 (ip), vehicle: Klucel (hydroxypropylcellulose) (HPC) 102 % of control | [11] 96 % of control | [12] 86 % of control and 93 % of control | [13] 86 % of control

CN1C(=O)/C(=C2\SC(=O)N(CN3CCOCC3)C2=O)c2cc(Br)ccc21
inactive: [8] 88 % of control | dose: 100.0 mg/kg/injection, schedule: Q01DX005 (ip), vehicle: Klucel (hydroxypropylcellulose) (HPC) 89 % of control | [9] 97 % of control

COc1ccc2c(c1)[C@@]13CCCC[C@H]1[C@@H](C2)N(C)CC3(C)O (stereo not given in full)
inactive: dose: 100.0 mg/kg/injection, schedule: Q04DX002 (ip), vehicle: Klucel (hydroxypropylcellulose) (HPC) 97 % of control | dose: 200.0 mg/kg/injection, schedule: Q04DX002 (ip), vehicle: Klucel (hydroxypropylcellulose) (HPC) 105 % of control

COc1cccc2c1C(=O)c1c(O)c3c(c(O)c1C2=O)CC(O)(C(=O)COC1CC(OC(C)=O)C(OC(C)=O)C(C)O1)CC3OC1CC(OC(C)=O)C(OC(C)=O)C(C)O1 (stereo not given)
inactive: dose: 3.13 mg/kg/injection, schedule: Q04DX003 (ip), vehicle: saline with Tween-80 100 % of control | dose: 6.25 mg/kg/injection, schedule: Q04DX003 (ip), vehicle: saline with Tween-80 100 % of control | dose: 12.5 mg/kg/injection, schedule: Q04DX003 (ip), vehicle: saline with Tween-80 100 % of control | [5] 95 % of control | [3] 100 % of control

C1=CC(Cc2ccccc2)NC1 (stereo not given)
inactive: dose: 100.0 mg/kg/injection, schedule: Q01DX001 (ip), vehicle: distilled water + alcohol 100 % of control | dose: 200.0 mg/kg/injection, schedule: Q01DX001 (ip), vehicle: distilled water + alcohol 100 % of control

CCOC(=O)c1cnc2cc(C(F)(F)F)ccc2c1Nc1ccc2c(c1)OCO2
inactive: [11] 100 % of control | [12] 102 % of control | [13] 98 % of control

COc1c2ccoc2cc2oc(COC3OC(CO)C(O)C(O)C3O)cc(=O)c12 (stereo not given)
inactive: dose: 12.5 mg/kg/injection, schedule: Q01DX005 (ip), vehicle: saline 100 % of control | dose: 25.0 mg/kg/injection, schedule: Q01DX005 (ip), vehicle: saline 108 % of control | dose: 50.0 mg/kg/injection, schedule: Q01DX005 (ip), vehicle: saline 106 % of control and 108 % of control

CCOC(=O)CNC(=O)NCc1ccccc1
inactive: [14] 108 % of control | dose: 120.0 mg/kg/injection, schedule: Q01DX005 (ip), vehicle: saline with Tween-80 90 % of control | dose: 240.0 mg/kg/injection, schedule: Q01DX005 (ip), vehicle: saline with Tween-80 96 % of control

O=C(NC(CO)C(=O)O)OCc1ccccc1 (stereo not given)
inactive: [15] 94 % of control | dose: 100.0 mg/kg/injection, schedule: Q01DX009 (ip), vehicle: Klucel (hydroxypropylcellulose) (HPC) 99 % of control | dose: 200.0 mg/kg/injection, schedule: Q01DX009 (ip), vehicle: Klucel (hydroxypropylcellulose) (HPC) 89 % of control

CCc1nc2ccccc2c(=O)n1C(C)C
inactive: dose: 100.0 mg/kg/injection, schedule: Q04DX002 (ip), vehicle: saline 100 % of control | dose: 200.0 mg/kg/injection, schedule: Q04DX002 (ip), vehicle: saline 106 % of control | dose: 400.0 mg/kg/injection, schedule: Q04DX002 (ip), vehicle: saline 104 % of control

CCOC(=O)c1ccc(NC(=O)Nc2nc3ccc(OC)cc3s2)cc1
inactive: dose: 25.0 mg/kg/injection, schedule: Q01DX009 (ip), vehicle: distilled water + Tween-80 91 % of control | dose: 50.0 mg/kg/injection, schedule: Q01DX009 (ip), vehicle: distilled water + Tween-80 89 % of control | dose: 100.0 mg/kg/injection, schedule: Q01DX009 (ip), vehicle: distilled water + Tween-80 91 % of control | dose: 200.0 mg/kg/injection, schedule: Q01DX009 (ip), vehicle: distilled water + Tween-80 89 % of control | dose: 400.0 mg/kg/injection, schedule: Q01DX009 (ip), vehicle: distilled water + Tween-80 89 % of control

CC1(C)CC(NC(=O)CCl)CC(C)(C)N1O
inactive: [16] 93 % of control | [17] 91 % of control | [18] 102 % of control

CNCCCCc1cc(-c2ccc([N+](=O)[O-])cc2)n[nH]1
inactive: dose: 100.0 mg/kg/injection, schedule: Q04DX003 (ip), vehicle: Klucel (hydroxypropylcellulose) (HPC) 105 % of control

CC1CC2OC2/C=C\C=C\C(=O)Cc2c(Cl)c(O)cc(O)c2C(=O)O1 (stereo not given)
inactive: dose: 6.25 mg/kg/injection, schedule: Q01DX009 (ip), vehicle: Klucel (hydroxypropylcellulose) (HPC) 107 % of control | dose: 12.5 mg/kg/injection, schedule: Q01DX009 (ip), vehicle: Klucel (hydroxypropylcellulose) (HPC) 108 % of control | dose: 25.0 mg/kg/injection, schedule: Q01DX009 (ip), vehicle: Klucel (hydroxypropylcellulose) (HPC) 110 % of control | [15] 109 % of control

O=[N+]([O-])c1nccn1CC(O)CO (stereo not given)
inactive: dose: 12.5 mg/kg/injection, schedule: Q01DX009 (ip), vehicle: saline 103 % of control and 116 % of control | dose: 25.0 mg/kg/injection, schedule: Q01DX009 (ip), vehicle: saline 101 % of control and 121 % of control | [16] 103 % of control and 116 % of control and 98 % of control | [17] 102 % of control and 106 % of control and 116 % of control | [18] 104 % of control and 107 % of control and 121 % of control | dose: 360.0 mg/kg/injection, schedule: Q01DX001 (ip), vehicle: saline 101 % of control and 102 % of control | dose: 400.0 mg/kg/injection, schedule: Q01DX009 (ip), vehicle: saline 102 % of control and 106 % of control | dose: 600.0 mg/kg/injection, schedule: Q01DX001 (ip), vehicle: saline 100 % of control and 102 % of control | dose: 1000.0 mg/kg/injection, schedule: Q01DX001 (ip), vehicle: saline 101 % of control and 104 % of control

CC1(C)C2CCC1(C)C(O)C2N (stereo not given)
inactive: dose: 30.0 mg/kg/injection, schedule: Q01DX005 (ip), vehicle: saline with Tween-80 93 % of control | [14] 94 % of control and 95 % of control

CN1C(c2cccnc2)=NCC12CCCC2
inactive: dose: 7.5 mg/kg/injection, schedule: Q01DX005 (ip), vehicle: saline 98 % of control | dose: 15.0 mg/kg/injection, schedule: Q01DX005 (ip), vehicle: saline 96 % of control | dose: 30.0 mg/kg/injection, schedule: Q01DX005 (ip), vehicle: saline 97 % of control

Nc1[nH]nc(Nc2cccc(Cl)c2Cl)c1C(=O)c1cccs1
inactive: [1] 101 % of control | [2] 99 % of control | [6] 99 % of control and 100 % of control | [7] 96 % of control | [10] 98 % of control
